Values joined by “and” are separate entries in the source; they are usually repeats but may differ in a detail not shown here. Equal entries are not always repeated. Where two headings read alike, the source gives them in different places.
Experiments:
CYP2D6 = CYP2D6 (Homo sapiens, UniProt P10635); test: Drug biotransformation cocktail: dextromethorphan
Description: (§1) Comparative CYP450 biotransformation studies were performed to assess functionality across a number of gold standard primary hepatocyte models. Cryopreserved PHHs were obtained from a single donor (Lonza, Breda, The Netherlands) or pooled donors (Thermo Scientific, Merelbeke, Belgium). Upon thawing, cell suspensions (0.5 million cells/ml) were prepared in WE medium using 24-well plates (0.5 ml/well) on an orbital shaker and metabolization activity was assessed following a 15 min equilibration period. Human Hepatopac® plates were obtained from Ascendance Biotechnology (Ascendance Biotechnology, Boston USA) and cultures were maintained following instructions of the provider. Spheroid cultures were generated in-house as essentially described by Bell et al.[42].
(§2) Finally, the system was re-equilibrated at 60% (A)/40% (B) for an additional 0.7 min. Total run time was 3.8 min and 2 µl aliquots were injected onto the system for analysis.
(§3) All data collection, processing, and analysis was performed with Analyst® software (v1.6.2. SCIEX).

CYP3A4 [1] = test: qRT-PCR CYP3A4 expression in HepG2; assay type: cell-based, human; conditions: single amino acid supplementation, relative to CTL (CTL values equal HepG2 D7 CTL)
Description: AA supplementation was accomplished through the addition of MEM Non-Essential Amino Acids Solution (100 × ) and MEM Amino Acids Solution (50 × ) (Thermo Scientific) to the culture medium. For AA1, AA2, and AA3 medium, we added respectively 2 ml, 8 ml, and 16 ml of non-essential AA solution and 1 ml, 4 ml, and 8 ml of essential AA solution per 100 ml of LDM, with or without glucose. Culture medium was then made PH neutral through the addition of NaOH. […] PSC derived HLCs were differentiated in LDM until D12. AA supplementation (AA1, AA2 and AA3) was performed from day 12 until day 20, 30 or 40 of differentiation. […] HepG2, HUH7.5, Hep3B, HHL5, and HEK293 cells were maintained in DMEM supplemented with 10% fetal bovine serum as shown in Supplementary Table 4. AA supplementation consisted of addition of 16 ml of non-essential AA mix and 8 ml of essential AA mix per 100 ml of medium and a further addition of 20 g/l of any of the single AAs. […] PHHs were maintained in a medium composition that was based on WE as detailed in ref. [67].
RNA extraction was performed using the GenElute Mammalian Total RNA Miniprep Kit (Sigma-Aldrich). Then, genomic DNA was eliminated using the On-Column DNase I Digestion kit (Sigma-Aldrich). Last, 1 µg of RNA was transcribed to cDNA using the Superscript III First-Strand synthesis (Invitrogen). Gene expression analysis was performed using the Platinum SYBR green qPCR supermix-UDG kit (Invitrogen) in a ViiA 7 Real-Time PCR instrument (Thermo Scientific, Waltham, MA). The sequences of all used qRT-PCR primers are listed in Supplementary Table 6. Of these, ribosomal protein L19 (RPL19) was used as a housekeeping gene for normalization.

CYP3A4 [2] = test: CYP3A4-dependent BFC metabolization (fluorometric probe); assay type: in vitro ADME, human; conditions: for BFC metabolisation: Figure 2B, replicate values; for BFC metabolisation (pmol/h/1000000cells): Figure 1D
Description: Urea concentrations in the medium were analyzed after 24 h of culture using the QuantiChromTM Urea Assay Kit (BioAssay Systems DIUR-500) according to the manufacturer’s instructions. […] Metabolization was assessed for 1 h and 4 h incubation times. […] The albumin secretion rate was quantified using the human albumin ELISA quantification kit (Bethyl) according to instructions provided in the kit.

CYP3A4 [3] = target: CYP3A4 (Homo sapiens, UniProt P08684)
Description: as §1, §2, §3

CYP2D6, sequence (P10635 whole entry): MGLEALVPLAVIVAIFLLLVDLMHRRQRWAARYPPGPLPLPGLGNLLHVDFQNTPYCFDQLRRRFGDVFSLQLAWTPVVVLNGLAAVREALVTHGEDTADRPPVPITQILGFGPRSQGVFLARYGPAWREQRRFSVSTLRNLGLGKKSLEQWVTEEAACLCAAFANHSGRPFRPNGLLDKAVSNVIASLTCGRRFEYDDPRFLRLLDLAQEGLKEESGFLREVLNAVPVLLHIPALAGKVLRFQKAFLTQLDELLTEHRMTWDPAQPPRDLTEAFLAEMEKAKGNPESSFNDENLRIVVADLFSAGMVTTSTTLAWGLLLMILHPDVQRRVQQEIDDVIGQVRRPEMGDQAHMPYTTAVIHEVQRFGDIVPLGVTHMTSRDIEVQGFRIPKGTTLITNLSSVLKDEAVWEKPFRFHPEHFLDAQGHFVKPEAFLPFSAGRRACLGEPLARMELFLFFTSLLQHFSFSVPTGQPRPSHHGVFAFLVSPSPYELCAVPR
CYP3A4 (Homo sapiens, UniProt P08684), sequence (P08684 whole entry): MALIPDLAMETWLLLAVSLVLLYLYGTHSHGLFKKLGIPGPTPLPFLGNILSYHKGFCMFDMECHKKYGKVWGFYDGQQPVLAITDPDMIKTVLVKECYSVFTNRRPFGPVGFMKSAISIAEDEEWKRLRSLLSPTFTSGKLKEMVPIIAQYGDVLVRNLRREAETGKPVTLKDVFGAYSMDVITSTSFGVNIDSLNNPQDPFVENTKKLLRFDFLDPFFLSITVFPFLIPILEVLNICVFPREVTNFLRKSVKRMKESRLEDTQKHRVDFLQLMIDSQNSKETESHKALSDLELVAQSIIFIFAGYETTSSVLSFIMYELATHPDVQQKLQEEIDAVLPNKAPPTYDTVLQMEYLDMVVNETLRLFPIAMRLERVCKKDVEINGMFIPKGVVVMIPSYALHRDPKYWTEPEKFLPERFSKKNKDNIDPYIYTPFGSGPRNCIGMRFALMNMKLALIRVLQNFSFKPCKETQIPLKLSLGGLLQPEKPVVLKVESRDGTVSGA

Compound: COc1ccc2c(c1)[C@]13CCCC[C@@H]1[C@H](C2)N(C)CC3 [Dextrometrophan]
- Dextrometrophan biotransformation (cocktail) (CYP2D6; HC6X LDM D40): 0
- Dextrometrophan biotransformation (cocktail) (CYP2D6; HepG2 AAGLY D32): 0
- Dextrometrophan biotransformation (cocktail) (CYP2D6; HepG2 CTL D4): 0
- Dextrometrophan biotransformation (cocktail) (CYP2D6; HepaRG diff D7): 0
- Dextrometrophan biotransformation (cocktail) (CYP2D6; Hepatopac): 0.5629 and 0.7098 and 0.9714
- Dextrometrophan biotransformation (cocktail) (CYP2D6; PHH1): 15.8656 and 14.7 and 17.4198

Compound: C[C@H](N)C(=O)O [ALA, alanine]
- Relative CYP3A4 expression (CYP3A4 [1]): 353.956 and 394.102 and 280.416

Compound: N[C@@H](CO)C(=O)O [SER, serine]
- Relative CYP3A4 expression (CYP3A4 [1]): 405.322 and 582.424 and 382.821

Compound: O=c1cc(C(F)(F)F)c2ccc(OCc3ccccc3)cc2o1 [BFC, 7-benzyloxy-4-trifluoromethylcoumarin]
- relative BFC metabolsiation (compared to PHH 0h) (CYP3A4 [2]; HC3X AAGLY D20): 13.5398 and 11.6179 and 10.8677
- relative BFC metabolsiation (compared to PHH 0h) (CYP3A4 [2]; HC3X AAGLY D40): 91.111 and 105.714 and 91
- relative BFC metabolsiation (compared to PHH 0h) (CYP3A4 [2]; HC3X AAGLY D50): 143.333 and 136.667 and 101.19
- BFC metabolisation (CYP3A4 [2]; HC3X D20): 21.4494 pmol/h/1000000 cells and 25.0015 pmol/h/1000000 cells and 28.2425 pmol/h/1000000 cells
- relative BFC metabolsiation (compared to PHH 0h) (CYP3A4 [2]; HC3X LDM D20): 1.9009 and 2.216 and 2.503
- relative BFC metabolsiation (compared to PHH 0h) (CYP3A4 [2]; HLC AAGLY D20): 5.305 and 4.4 and 6.066
- BFC metabolisation (pmol/h/1000000cells) (CYP3A4 [2]; HLC D20): 11.7761 pmol/h/1000000cells and 11.0043 pmol/h/1000000cells and 15.6069 pmol/h/1000000cells
- BFC metabolisation (CYP3A4 [2]; HLC D20): 11.7761 pmol/h/1000000 cells and 11.0043 pmol/h/1000000 cells and 15.6069 pmol/h/1000000 cells
- relative BFC metabolsiation (compared to PHH 0h) (CYP3A4 [2]; HLC LDM D20): 1.044 and 0.9752 and 0.9879
- relative BFC metabolsiation (compared to PHH 0h) (CYP3A4 [2]; HLC LDM D40): 4.464 and 8.743 and 7.646
- relative BFC metabolsiation (compared to PHH 0h) (CYP3A4 [2]; PHH 0h): 101.025 and 82.5131 and 116.462
- BFC metabolisation (pmol/h/1000000cells) (CYP3A4 [2]; PHH 0h): 1139.95 pmol/h/1000000cells and 931.065 pmol/h/1000000cells and 1314.14 pmol/h/1000000cells
- BFC metabolisation (CYP3A4 [2]; PHH 0h): 1139.95 pmol/h/1000000 cells and 1031.07 pmol/h/1000000 cells and 1214.14 pmol/h/1000000 cells
- relative BFC metabolsiation (compared to PHH 0h) (CYP3A4 [2]; PHH 12h): 9.941 and 9.524
- BFC metabolisation (pmol/h/1000000cells) (CYP3A4 [2]; PHH 12h): 112.17 pmol/h/1000000cells and 107.467 pmol/h/1000000cells and 156.494 pmol/h/1000000cells
- BFC metabolisation (CYP3A4 [2]; PHH 12h): 112.17 pmol/h/1000000 cells and 107.467 pmol/h/1000000 cells and 156.494 pmol/h/1000000 cells

Compound: OCc1ncc2n1-c1ccc(Cl)cc1C(c1ccccc1F)=NC2 [10H-midazolam]
- Stable 10H-midazolam metabolisation rate (CYP3A4 [3]; HC6X AAGLY D40, D46): 371.429 ng/h/100 000 cells and 443.182 ng/h/100 000 cells and 446.97 ng/h/100 000 cells
- Stable 10H-midazolam metabolisation rate (CYP3A4 [3]; HC6X AAGLY D40, D48): 353.788 ng/h/100 000 cells and 537.879 ng/h/100 000 cells and 462.121 ng/h/100 000 cells
- Stable 10H-midazolam metabolisation rate (CYP3A4 [3]; HepG2 AAGLY D30, column head D40): 79.0741 ng/h/100 000 cells and 82.3438 ng/h/100 000 cells and 89.7887 ng/h/100 000 cells
- Stable 10H-midazolam metabolisation rate (CYP3A4 [3]; HepG2 AAGLY D30, column head D42): 185 ng/h/100 000 cells and 122.333 ng/h/100 000 cells and 146.406 ng/h/100 000 cells
- Stable 10H-midazolam metabolisation rate (CYP3A4 [3]; HepG2 AAGLY D30, column head D46): 133.654 ng/h/100 000 cells and 137.308 ng/h/100 000 cells and 133.846 ng/h/100 000 cells
- Stable 10H-midazolam metabolisation rate (CYP3A4 [3]; HepG2 AAGLY D30, column head D48): 133.333 ng/h/100 000 cells and 151.667 ng/h/100 000 cells and 136.296 ng/h/100 000 cells
- Stable 10H-midazolam metabolisation rate (CYP3A4 [3]; HepG2 AAGLY D30, column head D50): 105 ng/h/100 000 cells and 107.963 ng/h/100 000 cells and 103.75 ng/h/100 000 cells

— PMC7069944, “Amino acid levels determine metabolism and CYP450 function of hepatocytes and hepatoma cell lines” (Nature Communications, 2020)
